For data set [1], the system named is HFF (Human Foreskin Fibroblast) cells. The data set can be described thus: Cytotoxicity test (sulforhodamine B) on HFF cells. Format: cell-based. How it is done: Culturing of HFF (Human Foreskin Fibroblast Cells in 96-Well Plate From a 75 cm^2 flask of HFF cells at confluence, the culture medium was removed, and then 2 mL of trypsin-EDTA (0.025% trypsin and 0.01% EDTA—Ethylenediaminetetraacetic acid) was added (at 37° C.). The flask was then briefly rinsed and the trypsin was removed. 2 mL of trypsin-EDTA was subsequently added and the flask was incubated for 5 minutes in an oven at 37° C.
5 ml of culture medium (minimal essential medium—MEM (PARA Laboratories GmbH)+Glutamine (2 mM)+Fungizone (2.5 μg/mL)+Penicillin (100 units/mL)+Streptomycin (100 μg/mL)+decomplemented Foetal Calf Serum 15%) was added and then the flask was rinsed with a pipette. The medium and cells were recovered in a tube. Counting on the Malassez counting chamber was then performed.
The cells were subsequently centrifuged at 200 g, for 7 minutes, and then the supernatant was removed. The pellet was taken up in the culture medium in a manner so as to obtain 10^5 cells/mL.
200 μL of this suspension per well was distributed, while leaving empty the wells of columns 1 and 12 and rows A and H. The wells that were left empty were filled with 200 μL of culture medium in order to prevent evaporation.
When the cells had reached confluence in the wells (about 48 hours), the medium was aspirated by making use of a vacuum extractor pump and then 200 μL of culture medium containing the various polysaccharides to be tested (the latter are tested at 50, 100, and 200 μg/mL) was added.
Each concentration was tested in triplicate. […]
The proteins were solubilised by using 200 μL of Tris-Base (10 mM) for 5 minutes on a plate with stirring at ambient temperature. The OD (Optical Density) at 550 nm was measured by making use of a microplate reader (Multiskan FC357, Thermo Scientific).
The mean of the OD and the standard deviation have been calculated for each sample tested in order to arrive at a conclusion with respect to the toxicity of the products.

A further data set relates to Nosema ceranae. Description: Inhibitory activity in vivo on Nosema in honey bees. How it is done: The results presented here have been obtained from the summer honey bees.
After recovering one brood chamber frame (or more as per the needs in honey bees) from the apiary by means of a glass frame holder, the latter was placed in an oven at 34° C. for a period of 24 to 48 hours in a manner so as to allow the honey bees to emerge from their cells. Then, the young honey bees were retrieved from the frame by making use of a pair of entomologist's forceps and placed in the beekeeping boxes (supers) on the basis of 50 honey bees/box. ⅙^th of a tube stick of PseudoQueen (Contech Enterprises, Canada) was added in each of the beekeeping boxes.
Each polysaccharide treatment was carried out in triplicate (three boxes/treatment). Each test operation contained a “healthy honey bees” control (honey bees not infected and not treated), an “infected honey bees” control (honey bees infected experimentally and not treated) and a fumagillin control; with these controls also being in triplicate. […]
Over the course of the post-Infection phase (a time period of 20 days), the dead honey bees were counted and removed on a daily basis from each of the boxes in order to track and monitor mortality. […]

The values that follow come from patent US9827277B2, “Sulphated polysaccharide composition” (UNIVERSITÉ BLAISE PASCAL—CLERMONT II, priority 2012, dated 2017).

Consider `CO[C@@H]1[C@H](OC(=O)/C=C/C=C/C=C/C=C/C(=O)O)CC[C@]2(CO2)[C@H]1[C@@]1(C)O[C@@H]1CC=C(C)C` [Fumagillin Control, fumagillin], for which the “Viability (%)” value in data set [1] (human, 96 h, 1 μg/mL) is given as 99.1 +/− 12.2%. Besides, the “Mortality at 20 days post-infection (%)” value with Nosema ceranae (honey bees infected with 125,000 N. ceranae spores, syrup supplemented with 1 μg/mL fumagillin, fed 3 days before and 20 days after infection) was 25.9 +/− 16.7%. Also, the “Change in parasite load (decrease)” value with Nosema ceranae (spore count at 20 days vs infected honey bees control, syrup with 1 μg/mL fumagillin) is reported as “Decrease of 63.4%”.
Turning to `C[S+](C)[O-]` [DMSO Positive Control, DMSO], the Conclusion entry in data set [1] (HFF cells, culture medium containing 20% of DMSO, 96 hours) is recorded as “Cytotoxic: control validated”. Moreover, in data set [1] (HFF cells, positive control: culture medium containing 20% of DMSO, 96 hours of incubation), the “Viability (%)” value is 6.8 +/− 1.4%.
